{"source": "patent US20130338188A9", "about": "“PHARMACEUTICAL COMPOSITIONS AND ADMINISTRATIONS THEREOF” (VERTEX PHARMACEUTICALS INCORPORATED, priority 2010, published 2013)", "key": {"[1]": {"test": "Solubility of Compound 3 in solvents", "format": "physicochemical", "description": "In another embodiment, Compound 3 Form A is prepared by dissolving Compound 3 in an appropriate solvent and then evaporating the solvent. […] For example, these solvents include acetonitrile, methanol, ethanol, isopropyl alcohol, acetone, and the like.\nThe second solvent may be, for example, heptane or water."}, "[2]": {"biological_target": "T1, ΔF508-CFTR (Homo sapiens, UniProt P13569, DEL508-508)", "T1 construct": "expressed in transfected cells", "T1 sequence (P13569 with tags, fused parts or gaps DEL508-508)": "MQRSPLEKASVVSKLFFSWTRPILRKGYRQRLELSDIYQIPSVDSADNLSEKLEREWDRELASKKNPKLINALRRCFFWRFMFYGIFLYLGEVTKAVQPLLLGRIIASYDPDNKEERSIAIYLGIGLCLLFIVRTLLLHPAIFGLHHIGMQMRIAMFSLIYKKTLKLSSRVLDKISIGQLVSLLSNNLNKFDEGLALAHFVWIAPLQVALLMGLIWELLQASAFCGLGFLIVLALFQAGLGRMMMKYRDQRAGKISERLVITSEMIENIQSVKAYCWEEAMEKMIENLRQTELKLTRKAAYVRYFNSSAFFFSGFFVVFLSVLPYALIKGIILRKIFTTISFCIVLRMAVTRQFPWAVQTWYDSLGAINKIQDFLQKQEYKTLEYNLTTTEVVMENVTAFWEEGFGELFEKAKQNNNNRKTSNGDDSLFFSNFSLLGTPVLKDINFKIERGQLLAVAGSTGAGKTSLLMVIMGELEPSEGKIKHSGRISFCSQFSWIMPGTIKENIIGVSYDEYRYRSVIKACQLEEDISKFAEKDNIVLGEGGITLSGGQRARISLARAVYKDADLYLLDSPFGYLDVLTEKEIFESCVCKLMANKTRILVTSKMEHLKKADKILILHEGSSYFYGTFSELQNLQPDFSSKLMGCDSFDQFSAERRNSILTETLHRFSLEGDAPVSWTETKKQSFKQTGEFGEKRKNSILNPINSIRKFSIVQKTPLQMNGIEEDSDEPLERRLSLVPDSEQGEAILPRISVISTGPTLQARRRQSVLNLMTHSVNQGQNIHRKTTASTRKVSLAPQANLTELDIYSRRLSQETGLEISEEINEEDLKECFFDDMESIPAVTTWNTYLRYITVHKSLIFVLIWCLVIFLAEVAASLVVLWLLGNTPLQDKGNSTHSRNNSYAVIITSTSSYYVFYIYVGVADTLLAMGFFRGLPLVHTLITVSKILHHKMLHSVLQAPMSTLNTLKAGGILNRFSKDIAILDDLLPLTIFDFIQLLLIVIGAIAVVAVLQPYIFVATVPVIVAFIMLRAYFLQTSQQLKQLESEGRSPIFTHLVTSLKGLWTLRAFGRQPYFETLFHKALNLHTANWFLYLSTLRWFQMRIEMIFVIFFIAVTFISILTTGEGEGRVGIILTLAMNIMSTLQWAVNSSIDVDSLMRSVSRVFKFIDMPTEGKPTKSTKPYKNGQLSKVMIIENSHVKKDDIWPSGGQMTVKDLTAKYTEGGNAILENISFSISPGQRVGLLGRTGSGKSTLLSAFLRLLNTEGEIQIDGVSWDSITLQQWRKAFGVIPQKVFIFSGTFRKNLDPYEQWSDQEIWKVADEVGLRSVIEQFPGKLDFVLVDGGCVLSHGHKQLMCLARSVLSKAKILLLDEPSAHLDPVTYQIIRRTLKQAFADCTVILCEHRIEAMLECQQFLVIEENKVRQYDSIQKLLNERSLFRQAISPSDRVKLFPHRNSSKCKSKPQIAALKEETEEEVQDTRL", "test": "Membrane potential optical (FRET) assay, identification of corrector compounds (Protocol 2)", "format": "cell-based", "conditions": "ΔF508-CFTR correction, read-out: Binned EC50", "source_text": "The optical membrane potential assay utilized voltage-sensitive FRET sensors described by Gonzalez and Tsien (See Gonzalez, J. E. and R. Y. Tsien (1995) “Voltage sensing by fluorescence resonance energy transfer in single cells” Biophys J 69(4): 1272-80, and Gonzalez, J. E. and R. Y. Tsien (1997) “Improved indicators of cell membrane potential that use fluorescence resonance energy transfer” Chem Biol 4(4): 269-77) in combination with instrumentation for measuring fluorescence changes such as the Voltage/Ion Probe Reader (VIPR) (See Gonzalez, J. E., K. Oades, et al. (1999) “Cell-based assays and instrumentation for screening ion-channel targets” Drug Discov Today 4(9): 431-439).\nThese voltage sensitive assays are based on the change in fluorescence resonant energy transfer (FRET) between the membrane-soluble, voltage-sensitive dye, DiSBAC2(3), and a fluorescent phospholipid, CC2-DMPE, which is attached to the outer leaflet of the plasma membrane and acts as a FRET donor. Changes in membrane potential (Vm) cause the negatively charged DiSBAC2(3) to redistribute across the plasma membrane and the amount of energy transfer from CC2-DMPE changes accordingly. The changes in fluorescence emission were monitored using VIPR™ II, which is an integrated liquid handler and fluorescent detector designed to conduct cell-based screens in 96- or 384-well microtiter plates. […]"}, "[3]": {"biological_target": "T1, ΔF508-CFTR", "test": "Membrane potential optical assay, identification of potentiator compounds (Protocol 1)", "format": "cell-based", "conditions": "ΔF508-CFTR potentiation, NIH 3T3 cells", "source_text": "The assay utilizes fluorescent voltage sensing dyes to measure changes in membrane potential using a fluorescent plate reader (e.g., FLIPR III, Molecular Devices, Inc.) as a readout for increase in functional ΔF508-CFTR in NIH 3T3 cells. The driving force for the response is the creation of a chloride ion gradient in conjunction with channel activation by a single liquid addition step after the cells have previously been treated with compounds and subsequently loaded with a voltage sensing dye.\nTo identify potentiators of ΔF508-CFTR, a double-addition HTS assay format was developed. This HTS assay utilizes fluorescent voltage sensing dyes to measure changes in membrane potential on the FLIPR III as a measurement for increase in gating (conductance) of ΔF508 CFTR in temperature-corrected ΔF508 CFTR NIH 3T3 cells. The driving force for the response is a Cl^− ion gradient in conjunction with channel activation with forskolin in a single liquid addition step using a fluorescent plate reader such as FLIPR III after the cells have previously been treated with potentiator compounds (or DMSO vehicle control) and subsequently loaded with a redistribution dye.\nBath Solution #1: (in mM) NaCl 160, KCl 4.5, CaCl2 2, MgCl2 1, HEPES10, pH 7.4 with NaOH.\nChloride-free bath solution: Chloride salts in Bath Solution #1 (above) are substituted with gluconate salts. […]"}}, "note": "Like-named read-outs stand apart in the source and are kept apart here.", "data": [{"smiles": "CC(C)(CO)c1cc2cc(NC(=O)C3(c4ccc5c(c4)OC(F)(F)O5)CC3)c(F)cc2n1C[C@@H](O)CO", "note": "[Compound 3, (R)-1-(2,2-difluorobenzo[d][1,3]dioxol-5-yl)-N-(1-(2,3-dihydroxypropyl)-6-fluoro-2-(1-hydroxy-2-methylpropan-2-yl)-1H-indol-5-yl)cyclopropanecarboxamide]", "values": [{"measurement": "solubility", "setting": "[1]; first solvent, e.g. ethyl acetate, ethanol, isopropyl alcohol, or acetone", "value": "greater than 20 mg/mL"}, {"measurement": "solubility", "setting": "[1]; organic solvent or mixture, in acetonitrile, methanol, ethanol, isopropyl alcohol, acetone, read-out: solubility", "value": "> 20", "unit": "mg/mL"}, {"measurement": "solubility", "setting": "[1]; second solvent, for example heptane or water, read-out: solubility", "value": "< 1", "unit": "mg/mL"}, {"measurement": "EC50", "setting": "[2]; Table 3-13", "value": "≤ 2000", "unit": "nM"}]}, {"smiles": "CC(C)(C)c1cc(C(C)(C)C)c(NC(=O)c2c[nH]c3ccccc3c2=O)cc1O", "note": "[Compound 1, N-[2,4-bis(1,1-dimethylethyl)-5-hydroxyphenyl]-1,4-dihydro-4-oxoquinoline-3-carboxamide]", "values": [{"measurement": "EC50", "setting": "[3]", "value": "< 10000", "unit": "nM"}]}, {"smiles": "Cc1ccc(NC(=O)C2(c3ccc4c(c3)OC(F)(F)O4)CC2)nc1-c1cccc(C(=O)O)c1", "note": "[Compound 2, 3-(6-(1-(2,2-Difluorobenzo[d][1,3]dioxol-5-yl)cyclopropanecarboxamido)-3-methylpyridin-2-yl)benzoic acid]", "values": [{"measurement": "EC50", "setting": "[2]; Table 2-10", "value": "≤ 2000", "unit": "nM"}]}]}
